Experimental data published in patent publication US20260115185A1, “QUINOLINE DERIVATIVES WHICH ACT AS KAPPA-OPIOID RECEPTOR ANTAGONISTS” (The Scripps Research Institute, priority 2023, published 2026).

Legend:
[1] = molecular target: T1, kappa opioid receptor (KOR) (Homo sapiens, UniProt P41145); test: OPRKappa 1 Tango B-Arrestin Assay, antagonist mode (Tango OPRK1-bla U2OS cells, U50488 EC80 challenge); assay type: cell-based; settings: for Selectivity (MOR/KOR): Kappa selectivity, MOR IC50 / KOR IC50; for IC50: antagonist mode, Tango OPRK1-bla U2OS cells, 6 nM U50488 challenge
T1 construct: host or cells: U2OS (Tango OPRK1-bla U2OS)
Description: OPRKappa 1 Tango B-Arrestin Assay Protocol-Antagonist Mode. […] The assay uses Tango OPRK1-bla U2OS cells which express OPRK1 linked to a GAL4-VP16 transcription factor via a TEV protease site. The cells also express a β-arrestin/TEV protease fusion protein and a β-lactamase (BLA) reporter gene under the control of a UAS response element. Stimulation of the OPRK1 receptor by agonist causes migration of the β-arrestin fusion protein to the GPCR, and through proteolysis liberates GAL4-VP16 from the receptor. The liberated VP16-GAL4 migrates to the nucleus, where it induces transcription of the BLA gene. BLA expression is monitored by measuring fluorescence resonance energy transfer (FRET) of a cleavable, fluorogenic, cell-permeable BLA substrate. As designed, test compounds that are OPRK1 antagonists inhibit agonist activation and migration of the fusion protein, thus preventing proteolysis of GAL4-VP16 and BLA transcription, leading to no increase in well FRET. Compounds were tested in quadruplicate using a 10-point, 1:3 dilution series starting at a nominal concentration of 10 micromolar.
The Tango OPRK1-U20S Dividing cell line was routinely cultured in 150 mm dishes at 37C, 5% CO2 and 95% relative humidity (RH).
On Day 1 of the assay, 16,000 cells in 10 μL of assay media (DMEM-Glutamax—with Sodium Pyruvate, 10% fetal bovine serum stripped with charcoal-dextran (CDS), 25 mM HEPES, 0.1 mM non-essential amino acids, antibiotic mix (penicillin streptomycin)) were seeded into each well of a 384 Greiner 788092 black low profile, clear bottom, low volume plate, and incubated 16-24 hours at 37° C., 5% CO2 and 95% (RH).
On Day 2, 50 nL of test compound in DMSO was added to the appropriate wells and plates were incubated for 30 min at 37° C. 5% CO2 and 95% (RH). Next was added 0.65 μL of commercially available U50488 OPRK1 agonist or DMSO in assay media: this EC80 Challenge consists of 0.6 μL of 111 nM U50488 to yield a final assay concentration of 6 nM). After incubation for 4 hours at 37° C., 5% CO2 and 95% (RH), 2.5 μL of LiveBLazer™FRET B/G (CCF4-AM) Mix (Soln.'s A,B,C,&D) was added to each well and incubated at room temperature in the dark for 2 hours. Well fluorescence was measured on Perkin Elmer's Envision using an Excitation filter 409 nm, Emission filters at 460 nm and […], bottom read.
(§1) The Percent Inhibition was calculated from the median ratio as follows:
• Tango™OPRK1-bla U20S Cells (Invitrogen K1576) • McCoy's 5A Medium, (Invitrogen 16600-082) • Dialyzed Fetal Bovine Serum, (Invitrogen 26400-036) • Non Essential Amino Acids 100× (Invitrogen part 11140-050) • HEPES (pH 7.3) 1M, (Invitrogen 15630-080) • Sodium Pyruvate 100× (Invitrogen 11360-070) • Penicillin Streptomycin, (Invitrogen 15640) • Trypsin 0.25% EDTA (Invitrogen 25200056) • DPBS without Calcium/Magnesium (Invitrogen 14190-136) • DMEM, High Glucose, GlutaMAX (Invitrogen 10569-010) • Fetal Bovine Serum, Charcoal Stripped (Invitrogen 12676-011) • DMSO Dry (Sigma D2650) • U50488 OPRK1 Agonist MW410.29 (Tocris 67198-19-0) • GNTI dihydrochloride OPRK1 Antagonist MW571.5 (Tocris 1282) • Nor-Binaltorphimine dihydrochloridc MW770.75 (Tocris 0347)
LiveBLAzere™-FRET/BG Loading Mix: (Invitrogen K1030 (5 mg)), composed of Solutions A, B, C, and D: • Solution A (6 μL): LiveBLAzer™-FRET/BG Substrate (CCF4-AM) • Solution B (60 μL) • Solution C (904 μL) • Solution C (must add 250 μl of 1N NaOH to 45 mL of Solution C prior to use) • Solution D (30 μL) [Probinicid] (Sigma P8161) make 200 mM stock in NaOH—H2O.

[2] = molecular target: T2, mu opioid receptor (MOR) (Homo sapiens, UniProt P35372); test: OPRMu1 Discover X β-arrestin Assay, antagonist mode (U2OS cells, DAMGO EC80 challenge); assay type: cell-based
T2 construct: host or cells: U2OS (Discover X OPRMu1-U2OS, PathHunter)
Description: OPRMu1 Discover X—β-arrestin Assay—Antagonist Mode. […] This assay evaluates the OPRMu1 activation in membrane recruitment of β-arrestin. In addition, the assay evaluates GPCR-β-arrestin proximity using low affinity fragment complementation of beta-galactosidase (beta-gal). The assay employs U20S cells, which express OPRMu1 fused to the complementary beta-gal fragment (enzyme acceptor). As designed, compounds that act as antagonists will prevent receptor activation resulting in reduced well luminescence. Compounds were tested in quadruplicate using a 10-point, 1:3 dilution series starting at a nominal concentration of 10 micromolar.
The Discover X OPRMu1-U20S cell line was cultured in 150 mm dishes at 37° C., 5% CO2 and 95% relative humidity (RH).
On Day 1 of the assay, 5000 cells in 20 μL of assay buffer (Discover X's Cell Plating Reagent 5) were seeded into each well of a 384 Corning 3570 standard white plate, and incubated 16-24 hours at 37° C., 5% CO2 and 95% RH.
On Day 2, 100 nL of test compound in DMSO were added to the appropriate wells and the plates were then incubated for 30 min at 37° C. 5% CO2 and 95% RH. Next, 2.2 μL of DAMGO OPRMu1 agonist (commercially available) or DMSO in assay media. (The EC80 Challenge consists of 1.8 μL of 3.7 μM DAMGO, 0.4 μL of Assay Buffer, with a final assay concentration of 303 nM). After incubation for 3 hours at 37° C. 5% CO2, and 95% RH, 10 μL of Path Hunter Detection Mix was added to each well, and the plate was then incubated at room temperature in the dark for 1 hour. Well luminescence was measured on Perkin Elmer's Envision.
as §1
• DMEM Medium, (Invitrogen 11965) • F12 Medium, (Invitrogen 11765) • Heat Inactivated Fetal Bovine Serum, (Invitrogen 10082147) • Non Essential Amino Acids 100× (Invitrogen 11140-050) • HEPES (pH 7.3) 1M, (Invitrogen 15630-080) • Sodium Pyruvate 100× (Invitrogen 11360-070) • Penicillin Streptomycin, (Invitrogen 15640) • Trypsin 0.25% EDTA (Invitrogen 25200056) • DPBS without Calcium/Magnesium (Invitrogen 14190-136) • DMSO Dry (Sigma D2650) • DAMGO OPRMu1 Agonist MW513.19 (Sigma E7384-5MG) • B-Funaltrexamine Hydrochloride OPRM1 Antagonist MW (SIGMA 0003-2MG) • PathHunter Cell Plating 5 Reagent (Discover X 93-0563R5A) • Corning 3750 Standard 384 well white plate with lid.
PathHunter Detection Mix (DiscoverX 93-0001): 1 part Galacton Star/5 parts Emerald II/19 parts PH Cell Assay Buffer.

T2 sequence (P35372 whole entry): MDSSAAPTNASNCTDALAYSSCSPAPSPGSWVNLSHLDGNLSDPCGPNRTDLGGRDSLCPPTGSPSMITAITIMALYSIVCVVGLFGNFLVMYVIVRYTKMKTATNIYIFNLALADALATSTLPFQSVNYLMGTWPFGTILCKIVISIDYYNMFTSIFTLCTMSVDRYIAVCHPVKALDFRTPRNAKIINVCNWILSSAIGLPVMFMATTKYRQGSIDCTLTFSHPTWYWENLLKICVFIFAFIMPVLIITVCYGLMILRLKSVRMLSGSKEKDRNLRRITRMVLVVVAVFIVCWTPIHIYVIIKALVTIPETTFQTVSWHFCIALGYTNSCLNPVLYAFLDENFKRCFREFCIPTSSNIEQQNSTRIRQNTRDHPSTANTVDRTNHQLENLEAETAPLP
T1 sequence (P41145 whole entry): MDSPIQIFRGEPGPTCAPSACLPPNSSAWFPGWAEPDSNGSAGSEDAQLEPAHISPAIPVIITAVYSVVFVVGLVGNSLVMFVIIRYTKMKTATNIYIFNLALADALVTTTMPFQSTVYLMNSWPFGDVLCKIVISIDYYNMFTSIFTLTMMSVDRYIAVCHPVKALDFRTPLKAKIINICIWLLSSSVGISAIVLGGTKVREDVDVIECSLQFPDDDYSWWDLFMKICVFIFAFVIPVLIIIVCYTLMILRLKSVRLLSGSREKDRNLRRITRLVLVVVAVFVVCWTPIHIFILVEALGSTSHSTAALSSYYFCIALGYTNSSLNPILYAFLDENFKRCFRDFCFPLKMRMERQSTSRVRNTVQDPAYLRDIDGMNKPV

SMILES	IC50 [1] [nM]	IC50 [2] [nM]	Selectivity (MOR/KOR) [1]
CCc1cc(-c2ccnn2C)c2nc(N3CCNC4CC43)c(-c3ccn(C)n3)c(C)c2c1 (stereo not drawn) [Compound 24, 2-(2,5-diazabicyclo[4.1.0]heptan-2-yl)-6-ethyl-4-methyl-3-(1-methyl-1H-pyrazol-3-yl)-8-(1-methyl-1H-pyrazol-5-yl)quinoline]	≥ 100	> 1000	+ (less than 10-fold selectivity)
CCc1cc(F)c2nc(N3CCN(CC(C)C)C[C@H]3C)c(-c3nc(C)no3)c(C)c2c1 [Compound 25]	< 1	> 1000	+++ (between 100- to 1000-fold selective)
CCc1cc(F)c2nc(N3CCN(C4CCOCC4)C[C@@H]3C)c(-c3nc(C)no3)c(C)c2c1 [Compound 27, (S)-5-(6-ethyl-8-fluoro-4-methyl-2-(2-methyl-4-(tetrahydro-2H-pyran-4-yl)piperazin-1-yl)quinolin-3-yl)-3-methyl-1,2,4-oxadiazole]	≥ 100	> 1000	++ (between 10- and 100-fold selectivity)
CCc1cc(F)c2nc(N3CCN([C@@H]4CCOC4)C[C@H]3C)c(-c3nc(C)no3)c(C)c2c1 [Compound 31]	≥ 100	> 1000	++ (between 10- and 100-fold selectivity)
CCc1cc(F)c2nc(N3CCN([C@H]4CCOC4)C[C@H]3C)c(-c3nc(C)no3)c(C)c2c1 [Compound 33]	1 to 10	> 1000	+++ (between 100- to 1000-fold selective)
CCc1cc(F)c2nc(N3CCN(CC4CCOCC4)C[C@H]3CC)c(-c3nc(C)no3)c(C)c2c1 [Compound 34, (R)-5-(6-ethyl-2-(2-ethyl-4-((tetrahydro-2H-pyran-4-yl)methyl)piperazin-1-yl)-8-fluoro-4-methylquinolin-3-yl)-3-methyl-1,2,4-oxadiazole]	10 to 100	100 to 1000	+ (less than 10-fold selectivity)
COc1cc(F)c2nc(N3CCN(CC4CCOCC4)C[C@H]3C)c(-c3nc(C)no3)c(C)c2c1 [Compound 37, (R)-5-(8-fluoro-6-methoxy-4-methyl-2-(2-methyl-4-((tetrahydro-2H-pyran-4-yl)methyl)piperazin-1-yl)quinolin-3-yl)-3-methyl-1,2,4-oxadiazole]	≥ 100	> 1000	++ (between 10- and 100-fold selectivity)
CCc1cc(F)c2nc(N3CCN(CC4CCOCC4)[C@@H](C)C3)c(-c3nc(C)no3)c(C)c2c1 [Compound 38, (S)-5-(6-ethyl-8-fluoro-4-methyl-2-(3-methyl-4-((tetrahydro-2H-pyran-4-yl)methyl)piperazin-1-yl)quinolin-3-yl)-3-methyl-1,2,4-oxadiazole]	10 to 100	> 1000	++ (between 10- and 100-fold selectivity)

Continued, in another order:

IC50 [1] [nM]	IC50 [2] [nM]	SMILES	Selectivity (MOR/KOR) [1]
1 to 10	> 1000	CCc1cc(F)c2nc(N3CCN(C[C@@H]4CCCO4)C[C@H]3C)c(-c3nc(C)no3)c(C)c2c1 [Compound 29]	+++ (between 100- to 1000-fold selective)
1 to 10	> 1000	CCc1cc(F)c2nc(N3CCN(C[C@H]4CCCO4)C[C@H]3C)c(-c3nc(C)no3)c(C)c2c1 [Compound 30]	+++ (between 100- to 1000-fold selective)
10 to 100	> 1000	CCc1cc(F)c2nc(N3CCN(C[C@@H]4CCCO4)C[C@H]3CC)c(-c3nc(C)no3)c(C)c2c1 [Compound 35]	++ (between 10- and 100-fold selectivity)
10 to 100	> 1000	CCc1cc(F)c2nc(N3CCN(C[C@H]4CCCO4)C[C@H]3CC)c(-c3nc(C)no3)c(C)c2c1 [Compound 36]	++ (between 10- and 100-fold selectivity)
